# Measured values: patent publication US4364958A, “1-Substituted-3-cycloalkyl-sulfonyl-pyrrolidine-2,5-dione derivatives and fungicidal compositions thereof” (Chinoin Gyogyszer es Vegyeszeti Termekek Gyara Rt., priority 1979, dated 1982)
# Read-outs that look alike come from different tables or passages of the source.
# Tests used:
# [1] = tested on: Fusarium oxysporum DSM.10975; test: minimal inhibitory concentration in Sabouraud medium; assay type: cell-based
# Text: Fusarium oxysporum DSM.10975
# (§1) As a medium Saboroud medium was employed.
# [2] = tested on: Fusarium graminocorum DSM.11802; test: as above; assay type: cell-based
# Text: Fusarium graminocorum DSM.11802
# as §1
# [3] = tested on: Trichophyton rubrum CBS.30338; test: as above; assay type: cell-based; settings: for MIC: Trichophyton rubrum
# Text: Trichophyton rubrum CBS.30338
# as §1
# [4] = tested on: Penicillium chrysogenium CCM.F-362; test: as above; assay type: cell-based; settings: Penicillium
# Text: Penicillium chrysogenium CCM.F-362
# as §1
# Candida albicans CBS.562 = test: as above; assay type: cell-based; settings: 48 hours
# Text: Candida albicans CBS.562 "2"
# as §1
# Phytophtora infestans = assay type: cell-based
# [5] = tested on: Aspergillus fumigatus CBS.11326; test: minimal inhibitory concentration in Sabouraud medium; assay type: cell-based; settings: Aspergillus fumigatus
# Text: Aspergillus fumigatus CBS.11326
# as §1
# [6] = tested on: Aspergillus flavus CBS.24765; test: as above; assay type: cell-based; settings: Aspergillus flavus
# Text: Aspergillus flavus CBS.24765
# as §1
# [7] = tested on: Penicillium digitatum CBS.31948; test: as above; assay type: cell-based; settings: Penicillium digitatum
# Text: Penicillium digitatum CBS.31948
# as §1
# [8] = tested on: Candida tropicalis CBS.433; test: as above; assay type: cell-based; settings: Candida tropicalis
# Text: Candida tropicalis CBS.433 "3"
# as §1
# [9] = tested on: Microsporum gypseum ver. vinosum CBS.10064; test: as above; assay type: cell-based; settings: Nannizzia gypsea
# Text: Microsporum gypseum ver. vinosum CBS.10064
# as §1
# [10] = tested on: Penicillium digitatum CCM.F-382; test: as above; assay type: cell-based; settings: Penicillium digitatum
# Text: Penicillium digitatum CCM.F-382
# as §1
# Candida pseudotropic = test: minimal inhibitory concentration, proliferating fungi; assay type: cell-based
# Text: as §1
# [11] = tested on: Saccharomyces cerevisiae OKI.1282; test: minimal inhibitory concentration in Sabouraud medium; assay type: cell-based; settings: Saccharomyces cerevisiae, OKI.1282, 48 h, 48 hours
# Text: Saccharomyces cerevisiae OKI.1282
# as §1
# [12] = tested on: Epidermophyton floccosum OKI/IV.; test: as above; assay type: cell-based; settings: for MIC: Epidermophyton floccosum, read-out: minimal inhibitory concentration
# Text: Epidermophyton floccosum OKI/IV.
# as §1
# Taphrina deformans = test: activity against phytopathogenic fungi; assay type: cell-based
# [13] = tested on: Aspergillus niger CBS.12648; test: minimal inhibitory concentration in Sabouraud medium; assay type: cell-based; settings: for MIC: Aspergillus niger
# Text: Aspergillus niger CBS.12648
# as §1
# Ascochyta pisi = test: activity against phytopathogenic fungi; assay type: cell-based
# [14] = tested on: Cryptococcus neoform. 78/K16; test: minimal inhibitory concentration in Sabouraud medium; settings: read-out: minimal inhibitory concentration
# [15] = tested on: Sporotrichum schenkii CBS.34035; test: as above; assay type: cell-based; settings: Sporotrichum
# Text: Sporotrichum schenkii CBS.34035
# as §1
# Cercospora beticola = test: activity against phytopathogenic fungi; assay type: cell-based
# Verticillium dahlise = test: activity against phytopathogenic fungi; assay type: cell-based
# [16] = tested on: Aspergillus niger CCM.F-330; test: minimal inhibitory concentration in Sabouraud medium; assay type: cell-based; settings: Aspergillus niger
# Text: Aspergillus niger CCM.F-330
# as §1
# [17] = tested on: Fusarium monoliforme DSM.11778; test: as above; assay type: cell-based; settings: Fusarium
# Text: Fusarium monoliforme DSM.11778
# as §1
# [18] = tested on: Trichophyton mentagrophytes CBS.50148; test: as above; assay type: cell-based; settings: Trichophyton mentagrophytes
# Text: Trichophyton mentagrophytes CBS.50148
# as §1
# Verticillium albo-atrum = test: activity against phytopathogenic fungi; assay type: cell-based
# Sclerotinia sclerotiorum = test: activity against phytopathogenic fungi; assay type: cell-based
# Botrytis cinerea = test: activity against phytopathogenic fungi; assay type: cell-based
# Candida krusei 79/K47 = test: minimal inhibitory concentration in Sabouraud medium; settings: Pichia kudriavzevii, read-out: minimal inhibitory concentration
# Description: Sabouraud medium was inoculated with 10^5 /ml. germ number and the propagation of the fungi was examined after 24, 48, 72, 144 and 288 hours incubation time and the minimal inhibitory concentrations were determined.
# Venturia = test: activity against phytopathogenic fungi; assay type: cell-based
# [19] = tested on: Penicillium chrysogenium CBS.19646; test: minimal inhibitory concentration in Sabouraud medium; assay type: cell-based; settings: Penicillium
# Text: Penicillium chrysogenium CBS.19646
# as §1
# [20] = tested on: Fusarium culmorum DSM.11425; test: as above; assay type: cell-based
# Text: Fusarium culmorum DSM.11425
# as §1
smiles,measurement,setting,value
Cc1ccc(N2C(=O)CC(S(=O)(=O)C3CCCCC3)C2=O)cc1 (stereo not shown),MIC,[1]; 72 hours,150 µg/mL
same,MIC,[1]; 144 hours,200 µg/mL
same,MIC,[1]; 288 hours,200 µg/mL
same,MIC,[2]; 72 hours,50 µg/mL
same,MIC,[2]; 144 hours,50 µg/mL
same,MIC,[2]; 288 hours,50 µg/mL
same,minimal inhibitory concentration,[3]; 144 hours,2.5 µg/mL
same,minimal inhibitory concentration,[3]; 288 hours,2.5 µg/mL
same,MIC,"[3]; CBS.30338, 144 h, 144 hours",5 µg/mL
same,MIC,"[3]; CBS.30338, 288 h, 288 hours",5 µg/mL
same,MIC,"[4]; CCM.F362, 72 h, 72 hours",75 µg/mL
same,MIC,"[4]; CCM.F362, 144 h, 144 hours",150 µg/mL
same,MIC,"[4]; CCM.F362, 288 h, 288 hours",150 µg/mL
same,minimal inhibitory concentration,Candida albicans CBS.562,25 µg/mL
same,MIC,"Candida albicans CBS.562; Candida albicans, CBS.562, 48 h",50 µg/mL
same,activity against Phytophtora infestans,Phytophtora infestans,active
same,MIC,"[5]; CBS.11326, 72 h, 72 hours",50 µg/mL
same,MIC,"[5]; CBS.11326, 144 h, 144 hours",150 µg/mL
same,MIC,"[5]; CBS.11326, 288 h, 288 hours",150 µg/mL
same,MIC,"[6]; CBS.24765, 72 h, 72 hours",150 µg/mL
same,MIC,"[6]; CBS.24765, 144 h, 144 hours",250 µg/mL
same,MIC,"[7]; CBS.31948, 72 h, 72 hours",10 µg/mL
same,MIC,"[7]; CBS.31948, 144 h, 144 hours",10 µg/mL
same,MIC,"[7]; CBS.31948, 288 h, 288 hours",10 µg/mL
same,MIC,"[8]; CBS.433, 24 h, 24 hours",100 µg/mL
same,MIC,"[8]; CBS.433, 48 h, 48 hours",150 µg/mL
same,MIC,[9]; 72 h,10 µg/mL
same,MIC,[9]; 144 h,25 µg/mL
same,MIC,[9]; 288 h,25 µg/mL
same,MIC,"[10]; CCM.F382, 72 h, 72 hours",25 µg/mL
same,MIC,"[10]; CCM.F382, 144 h, 144 hours",25 µg/mL
same,MIC,"[10]; CCM.F382, 288 h, 288 hours",75 µg/mL
same,MIC,Candida pseudotropic; 24 hours,2.5 µg/mL
same,MIC,Candida pseudotropic; 48 hours,10 µg/mL
same,MIC,[11],25 µg/mL
same,minimal inhibitory concentration,[12]; 72 hours,2.5 µg/mL
same,MIC,[12]; 72 h,5 µg/mL
same,MIC,[12]; 144 h,5 µg/mL
same,MIC,[12]; 288 h,5 µg/mL
same,activity against Taphrina deformans,Taphrina deformans,active
same,minimal inhibitory concentration,[13]; 144 hours,50 µg/mL
same,MIC,"[13]; CBS.12648, 72 h, 72 hours",25 µg/mL
same,MIC,"[13]; CBS.12648, 144 h, 144 hours",75 µg/mL
same,MIC,"[13]; CBS.12648, 288 h, 288 hours",75 µg/mL
same,activity against Ascochyta pisi,Ascochyta pisi,active
same,MIC,[14]; 24 h,1 µg/mL
same,MIC,[14]; 48 h,10 µg/mL
same,MIC,"[15]; CBS.34035, 72 h, 72 hours",5 µg/mL
same,MIC,"[15]; CBS.34035, 288 h, 288 hours",25 µg/mL
same,activity against Cercospora beticola,Cercospora beticola,active
same,activity against Verticillium dahlise,Verticillium dahlise,active
same,MIC,"[16]; CCM.F330, 72 h, 72 hours",100 µg/mL
same,MIC,"[16]; CCM.F330, 144 h, 144 hours",150 µg/mL
same,MIC,"[16]; CCM.F330, 288 h, 288 hours",250 µg/mL
same,MIC,"[17]; DSM.11778, 72 h, 72 hours",100 µg/mL
same,MIC,"[17]; DSM.11778, 144 h, 144 hours",150 µg/mL
same,MIC,"[17]; DSM.11778, 288 h, 288 hours",150 µg/mL
same,MIC,"[18]; CBS.50148, 72 h, 72 hours, read-out: minimal inhibitory concentration",2.5 µg/mL
same,MIC,"[18]; CBS.50148, 144 h, 144 hours, read-out: minimal inhibitory concentration",2.5 µg/mL
same,MIC,"[18]; CBS.50148, 288 h, 288 hours, read-out: minimal inhibitory concentration",5 µg/mL
same,MIC,"[18]; CBS.50148, read-out: Minimal inhibitory concentration inhibiting the growth",2.5 µg/mL
same,activity against Verticillium albo-atrum,Verticillium albo-atrum,active
same,activity against Sclerotinia sclerotiorum,Sclerotinia sclerotiorum,active
same,activity against Botrytis cinerea,Botrytis cinerea,active
same,MIC,"Candida krusei 79/K47; 79/K47, 24 h",2.5 µg/mL
same,MIC,"Candida krusei 79/K47; 79/K47, 48 h",10 µg/mL
same,activity against Venturia,Venturia,active
same,MIC,"[19]; CBS.19646, 72 h, 72 hours",50 µg/mL
same,MIC,"[19]; CBS.19646, 144 h, 144 hours",75 µg/mL
same,MIC,"[19]; CBS.19646, 288 h, 288 hours",75 µg/mL
same,MIC,[20]; 72 hours,75 µg/mL
same,MIC,[20]; 144 hours,150 µg/mL
same,MIC,[20]; 288 hours,150 µg/mL
